# Results: patent US9242984B2, “Pyrazolyl derivatives as Syk inhibitors” (Merck Sharp & Dohme Corp., priority 2012, dated 2016)
# Biological target: T1, recombinant human Syk (GST-hSyk fusion protein) (Homo sapiens, UniProt P43405)
# T1 construct: purchased Carna Biosciences 08-176
# Experiment: Homogeneous Time-Resolved Fluorescence (HTRF) assay for the recombinant human Syk enzyme
# Assay type: biochemical
# Conditions: 10-dose titration, 25 μM ATP; read-out: rhSYK IC50
# In short: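 IC50 came from a four-parameter fit over ten doses, 10 μM to 0.508 nM, with HTRF read-out (Eu-anti-pTyr antibody, SA-APC, EDTA stop, 30 min). The enzyme, 5 pM GST-hSyk, met compound for 10 min, then phosphorylated 250 nM biotin-peptide with 25 μM ATP and 5 mM Mg for 45 min at room temperature, pH 7.5.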
row,IC50,Compound
1,110 nM,"Cc1cc(Nc2nccc(C(F)(F)F)n2)cc(-c2cnn(CC3(O)CCNCC3)c2)c1 [Example 12.1, 4-((4-(3-methyl-5-((4-(trifluoromethyl)pyrimidin-2-yl)amino)phenyl)-1H-pyrazol-1-yl)methyl)piperidin-4-ol]"
2,48.3 nM,"Cc1cc(Nc2ncccn2)cc(-c2cnn(C3CC(C(N)=O)C3)c2)c1 (single isomer, unassigned) [Example 30.1, 3-(4-(3-Methyl-5-(pyrimidin-2-ylamino)phenyl)-1H-pyrazol-1-yl)cyclobutanecarboxamide]"
3,7.2 nM,"Cc1cc(Nc2ncccn2)cc(-c2cnn(C(C)c3ccc(C(N)=O)cc3)c2)c1 (single isomer, unassigned) [Example 28.2, 4-(1-(4-(3-methyl-5-(pyrimidin-2-ylamino)phenyl)-1H-pyrazol-1-yl)ethyl)benzamide]"

# Same assay, conditions: IC50 class; 10-dose titration, 25 μM ATP; read-out: rhSYK Activity
row,Compound,IC50
1,"Cc1cc(Nc2nccc(C(F)(F)F)n2)cc(-c2cnn(CC3(O)CCNCC3)c2)c1 [Example 12.1, 4-((4-(3-methyl-5-((4-(trifluoromethyl)pyrimidin-2-yl)amino)phenyl)-1H-pyrazol-1-yl)methyl)piperidin-4-ol]",100 to 1000 nM
2,"Cc1ccnc(Nc2cccc(-c3cnn(CCC(N)=O)c3)c2)n1 [Example 2.10, 3-(4-{3-[(4-methylpyrimidin-2-yl)amino]phenyl}-1H-pyrazol-1-yl)propanamide]",100 to 1000 nM
3,3-[4-(4-methyl-6-{[4-(trifluoromethyl)pyridin-2-yl]amino}pyrimidin-2-yl)-1H-pyrazol-1-yl]propanoic acid [Example 1.40],≤ 100 nM
4,"Cc1cc(Nc2nccc(C(F)F)n2)cc(-c2cnn(CC3OC(=O)NC3CO)c2)c1 (single isomer, unassigned) [Example 33.4, 5-{[4-(3-{[4-(difluoromethyl)pyrimidin-2-yl]amino}-5-methylphenyl)-1H-pyrazol-1-yl]methyl}-4-(hydroxymethyl)-1,3-oxazolidin-2-one]",≤ 100 nM
5,"Cc1cc(Nc2nccc(C(F)F)n2)cc(-c2cnn(CCNC(=O)NC(C)(C)C)c2)c1 [Example 27.15, 1-tert-butyl-3-{2-[4-(3-{[4-(difluoromethyl)pyrimidin-2-yl]amino}-5-methylphenyl)-1H-pyrazol-1-yl]ethyl}urea]",≤ 100 nM
6,"Cc1cc(Nc2cc(C(C)(F)F)ccn2)nc(-c2cnn(CC3CNC(=O)O3)c2)c1 (stereo not drawn) [Example 3.85, 5-{[4-(6-{[4-(1,1-difluoroethyl)pyridin-2-yl]amino}-4-methylpyridin-2-yl)-1H-pyrazol-1-yl]methyl}-1,3-oxazolidin-2-one]",≤ 100 nM
7,"CCNC(=O)NCCn1cc(-c2cc(C)cc(Nc3nccc(C(F)F)n3)c2)cn1 [Example 27.16, 1-{2-[4-(3-{[4-(difluoromethyl)pyrimidin-2-yl]amino}-5-methylphenyl)-1H-pyrazol-1-yl]ethyl}-3-ethylurea]",≤ 100 nM
8,"Cc1cc(Nc2nccc(C(F)(F)F)n2)cc(-c2cnn(C(C)c3ccc(C(=O)O)cc3)c2)c1 (stereo not drawn) [Example 1.49, 4-{1-[4-(3-methyl-5-{[4-(trifluoromethyl)pyrimidin-2-yl]amino}phenyl)-1H-pyrazol-1-yl]ethyl}benzoic acid]",≤ 100 nM
9,"Cc1cc(Nc2ncc(F)c(C(F)F)n2)cc(-c2cnn(CC(C)(O)CO)c2)c1 (single isomer, unassigned) [Example 25.10, 3-[4-(3-{[4-(difluoromethyl)-5-fluoropyrimidin-2-yl]amino}-5-methylphenyl)-1H-pyrazol-1-yl]-2-methylpropane-1,2-diol]",≤ 100 nM
10,"Cc1cc(Nc2nccc(C(F)F)n2)cc(-c2cnn(CC(O)c3ccccn3)c2)c1 (stereo not drawn) [Example 5.26, 2-[4-(3-{[4-(difluoromethyl)pyrimidin-2-yl]amino}-5-methylphenyl)-1H-pyrazol-1-yl]-1-pyridin-2-ylethanol]",≤ 100 nM
11,"COCC(O)Cn1cc(-c2cc(C)cc(Nc3nccc(C(F)F)n3)c2)cn1 (stereo not drawn) [Example 5.22, 1-[4-(3-{[4-(difluoromethyl)pyrimidin-2-yl]amino}-5-methylphenyl)-1H-pyrazol-1-yl]-3-methoxypropan-2-ol]",≤ 100 nM
12,"Cc1cc(Nc2nccc(C(F)(F)F)n2)cc(-c2cnn(CC3CNC(=O)O3)c2)c1 (single isomer, unassigned) [Example 2.4, 5-{[4-(3-methyl-5-{[4-(trifluoromethyl)-pyrimidin-2-yl]-amino}phenyl)-1H-pyrazol-1-yl]methyl}-1,3-oxazolidin-2-one]",≤ 100 nM
13,"Cc1cc(Nc2nccc(C(F)F)n2)cc(-c2cnn(C(C[C@H](C)O)[C@H](C)O)c2)c1 (stereo in doubt) [Example 2.51, 3-[4-(3-{[4-(difluoromethyl)pyrimidin-2-yl]amino}-5-methylphenyl)-1H-pyrazol-1-yl]hexane-2,5-diol]",≤ 100 nM
14,"Cc1cc(Nc2nccc(C(F)(F)F)n2)cc(-c2cnn(C3CCC(C(=O)O)CC3O)c2)c1 (stereo not drawn) [Example 5.39, 3-hydroxy-4-[4-(3-methyl-5-{[4-(trifluoromethyl)pyrimidin-2-yl]amino}phenyl)-1H-pyrazol-1-yl]cyclohexane-carboxylic acid]",≤ 100 nM
15,"Cc1cc(Nc2nccc(C(F)(F)F)n2)cc(-c2cnn(CC3(O)CCOC(C)(C)C3)c2)c1 (stereo not drawn) [Example 12.10, 2,2-dimethyl-4-{[4-(3-methyl-5-{[4-(trifluoro-methyl)pyrimidin-2-yl]amino}phenyl)-1H-pyrazol-1-yl]methyl}-tetrahydro-2H-pyran-4-ol]",≤ 100 nM

# More lines, now with the values ahead:
row,IC50,Compound
1,≤ 100 nM,"Cc1cc(Nc2nccc(C(F)(F)F)n2)cc(-c2cnn(C3CCNC(=O)CC3)c2)c1 (single isomer, unassigned) [14 (isomer 1)]"
2,≤ 100 nM,"Cc1cc(Nc2nccc(C(F)F)n2)cc(-c2cnn(CC(C)(O)C(C)(C)O)c2)c1 (stereo not drawn) [Example 21.7, 1-[4-(3-{[4-(difluoromethyl)pyrimidin-2-yl]amino}-5-methylphenyl)-1H-pyrazol-1-yl]-2,3-dimethylbutane-2,3-diol]"
3,≤ 100 nM,"Cc1cc(Nc2nccc(C(F)F)n2)cc(-c2cnn(CCNS(=O)(=O)N3CCOCC3)c2)c1 [Example 27.14, N-{2-[4-(3-{[4-(difluoromethyl)pyrimidin-2-yl]amino}-5-methylphenyl)-1H-pyrazol-1-yl]ethyl}morpholine-4-sulfonamide]"
4,≤ 100 nM,"Cc1cc(Nc2ncccn2)cc(-c2cnn(C3CC(C(N)=O)C3)c2)c1 (single isomer, unassigned) [Example 30.1, 3-(4-(3-Methyl-5-(pyrimidin-2-ylamino)phenyl)-1H-pyrazol-1-yl)cyclobutanecarboxamide]"
5,≤ 100 nM,"O=C(O)CCc1cnn(-c2cccc(Nc3cc(C(F)(F)F)ccn3)n2)c1 [Example 18.1, 3-(1-(6-((4-(trifluoromethyl)pyridin-2-yl)amino)pyridin-2-yl)-1H-pyrazol-4-yl)propanoic acid]"
6,≤ 100 nM,"Cc1cc(Nc2nccc(C(F)(F)F)n2)cc(-c2cnn(CC(O)C(F)(F)F)c2)c1 (single isomer, unassigned) [Example 3.45, 1,1,1-trifluoro-3-[4-(3-methyl-5-{[4-(trifluoromethyl)pyrimidin-2-yl]amino}phenyl)-1H-pyrazol-1-yl]propan-2-ol]"
7,≤ 100 nM,"CCC(C)(O)Cn1cc(-c2cc(C)cc(Nc3nccc(C(F)F)n3)c2)cn1 (stereo not drawn) [Example 3.113, 1-[4-(3-{[4-(difluoromethyl)pyrimidin-2-yl]amino}-5-methylphenyl)-1H-pyrazol-1-yl]-2-methylbutan-2-ol]"
8,≤ 100 nM,"Cc1cc(Nc2nccc(C(F)F)n2)cc(-c2cnn(CC3CC(=O)NC3C)c2)c1 (stereo not drawn) [Example 2.79, 4-{[4-(3-{[4-(difluoromethyl)pyrimidin-2-yl]amino}-5-methylphenyl)-1H-pyrazol-1-yl]methyl}-5-methylpyrrolidin-2-one]"
9,≤ 100 nM,"Cc1cc(Nc2nccc(C(F)(F)F)n2)cc(-c2cnn(CC3OC(=O)NC3(C)C)c2)c1 (stereo not drawn) [Example 3.99, 4,4-dimethyl-5-{[4-(3-methyl-5-{[4-(trifluoromethyl)pyrimidin-2-yl]amino}phenyl)-1H-pyrazol-1-yl]methyl}-1,3-oxazolidin-2-one]"
10,≤ 100 nM,"Cc1cc(Nc2nccc([C@@H](C)F)n2)cc(-c2cnn(CC(C)(O)CO)c2)c1 (single isomer, unassigned) [Example 25.8]"
11,≤ 100 nM,"CCC(O)Cn1cc(-c2cc(C)cc(Nc3nccc(C(F)(F)F)n3)c2)cn1 (racemic) [Example 5.9, 1-[4-(3-methyl-5-{[4-(trifluoro-methyl)pyrimidin-2-yl]amino}-phenyl)-1H-pyrazol-1-yl]butan-2-ol]"
12,≤ 100 nM,"Cc1cc(Nc2nccc(C(F)F)n2)cc(-c2cnn(C(C)C3CNC(=O)C3)c2)c1 (stereo not drawn) [Example 2.68, 4-{1-[4-(3-{[4-(difluoromethyl)pyrimidin-2-yl]amino}-5-methylphenyl)-1H-pyrazol-1-yl]ethyl}pyrrolidin-2-one]"
13,≤ 100 nM,"Cc1cc(Nc2nccc(C(F)(F)F)n2)cc(-c2cnn(C3CCC(C(N)=O)C(C)(C)C3)c2)c1 (stereo not drawn) [Example 8.7, 2,2-dimethyl-4-[4-(3-methyl-5-{[4-(trifluoromethyl)-pyrimidin-2-yl]amino}-phenyl)-1H-pyrazol-1-yl]cyclohexane-carboxamide]"
14,≤ 100 nM,"Cc1cc(Nc2nccc(C(F)(F)F)n2)cc(-c2cnn(C[C@@H](C)CO)c2)c1 [Example 3.4, (2r)-2-methyl-3-[4-(3-methyl-5-{[4-(trifluoromethyl)-pyrimidin-2-yl]-amino}phenyl)-1H-pyrazol-1-yl]-propan-1-ol]"
15,≤ 100 nM,"Cc1cc(Nc2nccc(C)n2)cc(-c2cnn(CC3OC(=O)NC3C(C)C)c2)c1 (single isomer, unassigned) [Example 23.16, 4-(1-methylethyl)-5-[(4-{3-methyl-5-[(4-methylpyrimidin-2-yl)amino]phenyl}-1H-pyrazol-1-yl)methyl]-1,3-oxazolidin-2-one]"
16,≤ 100 nM,"CCOC(=O)CCn1cc(-c2cc(C)cc(Nc3cc(C(F)(F)F)ccn3)n2)cn1 [Example 1.16, ethyl 3-[4-(4-methyl-6-{[4-(trifluoromethyl)pyridin-2-yl]amino}pyridin-2-yl)-1H-pyrazol-1-yl]propanoate]"
17,≤ 100 nM,"Cc1cc(Nc2nccc(C(F)(F)F)n2)cc(-c2cnn(CC3OC(=O)NC3C(C)C)c2)c1 (single isomer, unassigned) [Example 23.4, 4-(1-methylethyl)-5-{[4-(3-methyl-5-{[4-(trifluoromethyl)pyrimidin-2-yl]amino}phenyl)-1H-pyrazol-1-yl]methyl}-1,3-oxazolidin-2-one]"
18,≤ 100 nM,"Cc1cc(Nc2ncccn2)cc(-c2cnn(C(C)c3ccc(C(N)=O)cc3)c2)c1 (single isomer, unassigned) [Example 28.2, 4-(1-(4-(3-methyl-5-(pyrimidin-2-ylamino)phenyl)-1H-pyrazol-1-yl)ethyl)benzamide]"
